System: Corticium sasakii
Test: Activity against sheath blight on rice caused by Corticium sasakii (protective spray, rice plants cultivar Tai-Nong 67)
Format: in vivo
Settings: individual active compound, evaluated after 11 days, untreated control 85% infection
Method: The active compounds, separately or jointly, were prepared as a stock solution comprising 0.25% by weight of active compound in acetone or DMSO. 1% by weight of the emulsifier Uniperol® EL (wetting agent having emulsifying and dispersing action based on ethoxylated alkylphenols) was added to this solution, and the mixture was appropriately diluted with water to the desired concentration.
Pots of rice plants of the cultivar “Tai-Nong 67” were sprayed to runoff point with an aqueous suspension having the concentration of active compound stated below. The next day, oat grains infected with Corticium sasakii were planted in the pots (in each case 5 grains per pot). The plants were then placed in a chamber at 26° C. and maximum atmospheric humidity. After 11 days, the sheath blight on the untreated but infected control plants had developed to such an extent that the infection could be determined visually in %.
Evaluation is carried out by determining the infected leaf areas in percent. These percentages were converted into efficacies.
The efficacy (E) is calculated as follows using Abbot's formula: E=(1−α/β)·100 • α corresponds to the fungal infection of the treated plants in % and • β corresponds to the fungal infection of the untreated (control) plants in %
An efficacy of 0 means that the infection level of the treated plants corresponds to that of the untreated control plants; an efficacy of 100 means that the treated plants are not infected.
The expected efficacies of the mixtures of active compounds are determined using Colby's formula [R. S. Colby, Weeds, 15, 20-22 (1967)] and are compared with the observed efficacies.
Colby's formula: E=x+y−x·y/100 • expected efficacy, expressed in % of the untreated control, when using the mixture of the active compounds A and B at the concentrations a and b • x efficacy, expressed in % of the untreated control, when using the active compound A at the concentration a
y efficacy, expressed in % of the untreated control, when using the active compound B at the concentration b

Row | Structure (SMILES) | Efficacy in % of the untreated control (4 ppm in the spray liquor) | Efficacy in % of the untreated control (16 ppm in the spray liquor)
1 | CC1CCN(c2c(-c3c(F)cc(F)cc3F)c(Cl)nc3ncnn23)CC1 [I, 5-chloro-7-(4-methylpiperidin-1-yl)-6-(2,4,6-trifluorophenyl)-[1,2,4]triazolo[1,5-a]pyrimidine] | 30% | 65%
2 | CN(C)S(=O)(=O)N(SC(F)(Cl)Cl)c1ccccc1 [II (dichlofluanid), N-dichlorofluoromethylthio-N′,N′-dimethyl-N-phenylsulfonamide] | 0% | 0%

Source: patent publication US20070161655A1, “Fungicidal mixtures” (BASF Aktiengesellschaft, priority 2004, published 2007)
